# Like-named read-outs stand apart in the source and are kept apart here.
# What was measured:
# PARP-1 = PARP-1 (Homo sapiens, UniProt P09874); settings: release of PARP-1 from DNA; cited from earlier work
# PIP cells = settings: cited from earlier work
# PSMA^+ PIP cells [1] = experiment: Subcellular fractionation in PSMA+ PIP cells; format: cell-based; settings: 1 h
# Description: Subcellular fractionation of [^131I]PARP-PSMA combo agent 13 in PSMA+ PIP cells was determined using The Subcellular Protein Fractionation Kit for Cultured Cells (Number 78840) purchased from Thermo Scientific. PIP Cells (5 million) were incubated with […] of [^131I] 13 in 1.5 ml tubes with a final incubation volume of 500 μL. Stepwise separation and preparation of cytoplasmic, membrane, nuclear soluble, chromatin-bound and cytoskeletal protein extracts from PSMA^+ PIP cells were achieved by following the protocol provided by Thermo Scientific. The following groups of experiments were performed: • 1. ([^131I]PARP-PSMA combo agent 13. • 2. ([^131I]PARP-PSMA combo agent 13+2-PMPA blocking agent (680 μM) • 3. ([^131I]PARP-PSMA combo agent 13+Olaparib blocking agent (6.8 mM) • 4. ([^131I]PARP-PSMA combo agent 13+2-PMPA blocking agent (6.8 mM)+Olaparib blocking agent (6.8 mM)
# PSMA^+ PIP cells [2] = experiment: PSMA-specific uptake and internalization in PIP cells; format: cell-based; settings: for Total cell-associated activity (percentage of input dose): 37° C., 5×10^5 PIP cells
# Description: PSMA-specific uptake and internalization of [^131I]PARP-PSMA combo agent 13 was determined by incubation with 5×10^5 PIP cells in triplicate in the absence or presence of 200 μM 2-PMPA at 37° C. for 0.25-2 h. After removing the unbound activity-containing medium, the cells were washed with 50 mM glycine, pH 2.8 and finally, cells were lysed with 1M NaOH. Radioactivity in the supernatants, glycine wash (membrane-bound) and lysate (internalized) fractions was counted and percentage of input dose calculated. […] Total cell-associated activity was 18.7±1.0%, 30.0±0.9%, 31.8±1.0 and 37.9±0.6% at 15, 30, 60, and 120 min, respectively.
# [3] = + 2-PMPA (6.8 mM) + Olaparib (6.8 mM) blocking agents
# [4] = + 2-PMPA blocking agent (680 μM)
# [5] = + Olaparib blocking agent (6.8 mM)
# Chain of PARP-1 (P09874 whole entry): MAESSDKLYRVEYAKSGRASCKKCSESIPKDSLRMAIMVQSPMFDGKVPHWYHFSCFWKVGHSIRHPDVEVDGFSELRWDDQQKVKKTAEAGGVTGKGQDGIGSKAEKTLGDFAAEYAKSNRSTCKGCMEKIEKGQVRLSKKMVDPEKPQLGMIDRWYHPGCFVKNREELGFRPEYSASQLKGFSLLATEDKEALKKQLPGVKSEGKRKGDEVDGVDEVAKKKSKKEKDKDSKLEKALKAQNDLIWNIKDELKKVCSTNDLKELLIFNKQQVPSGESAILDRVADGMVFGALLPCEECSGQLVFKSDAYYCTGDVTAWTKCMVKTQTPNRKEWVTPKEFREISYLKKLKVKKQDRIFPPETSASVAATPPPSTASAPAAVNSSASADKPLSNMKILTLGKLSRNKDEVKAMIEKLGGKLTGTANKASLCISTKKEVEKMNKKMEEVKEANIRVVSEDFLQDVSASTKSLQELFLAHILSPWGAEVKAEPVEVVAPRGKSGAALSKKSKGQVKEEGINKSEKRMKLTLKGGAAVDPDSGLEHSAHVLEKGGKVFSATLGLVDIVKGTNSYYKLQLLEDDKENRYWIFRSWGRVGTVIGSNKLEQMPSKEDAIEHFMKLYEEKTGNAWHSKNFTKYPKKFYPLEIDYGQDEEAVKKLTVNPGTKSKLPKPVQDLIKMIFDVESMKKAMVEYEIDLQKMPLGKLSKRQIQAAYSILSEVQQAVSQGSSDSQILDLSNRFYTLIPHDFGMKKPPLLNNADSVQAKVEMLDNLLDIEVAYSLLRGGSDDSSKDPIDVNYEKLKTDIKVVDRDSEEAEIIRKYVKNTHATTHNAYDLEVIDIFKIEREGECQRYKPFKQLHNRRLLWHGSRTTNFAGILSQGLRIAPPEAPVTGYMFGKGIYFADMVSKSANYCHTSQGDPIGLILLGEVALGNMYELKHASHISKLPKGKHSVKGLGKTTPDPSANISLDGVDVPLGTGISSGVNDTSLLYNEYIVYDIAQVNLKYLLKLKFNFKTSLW
smiles,measurement,setting,value
COC(=O)c1cnc(N2CCN(C(=O)c3ccc(-c4nc5c(C(N)=O)cccc5[nH]4)cc3)CC2)nc1 [UKTT15],dissociation rate constant (kd),PARP-1,0.00185 s⁻¹
O=C(O)CC[C@H](NC(=O)N[C@@H](CCCCNC(=O)c1ccc([131I])cc1)C(=O)O)C(=O)O [[^131I]DCIBzL],Total cell-associated activity,PIP cells; 30 min,5.0±0.3%
same,Total cell-associated activity,PIP cells; 60 min,9.3±1.5%
same,Total cell-associated activity,PIP cells; 120 min,16.8±1.0%
"O=C(O)CC[C@H](NC(=O)N[C@@H](CCCCNC(=O)CCOCCOCCOCCNC(=O)c1cc([131I])cc(C(=O)N2CCN(C(=O)c3cc(Cc4n[nH]c(=O)c5ccccc45)ccc3F)CC2)c1)C(=O)O)C(=O)O [[^131I]PARP-PSMA combo agent 13, (20S,24S)-1-(3-(4-(2-fluoro-5-((4-oxo-3,4-dihydrophthalazin-1-yl)methyl)benzoyl)piperazine-1-carbonyl)-5-[^131I]iodophenyl)-1,14,22-trioxo-5,8,11-trioxa-2,15,21,23-tetraazahexacosane-20,24,26-tricarboxylic Acid]",Cells Left Over,PSMA^+ PIP cells [1]; [3],0.02%
same,Cytoplasmic,PSMA^+ PIP cells [1]; [3],2.13%
same,Cytoskeletal Protein,PSMA^+ PIP cells [1]; [3],0.02%
same,Membrane,PSMA^+ PIP cells [1]; [3],1.44%
same,Micrococcal Nuclease,PSMA^+ PIP cells [1]; [3],0.03%
same,Nuclear Soluble,PSMA^+ PIP cells [1]; [3],0.14%
same,Supernatant (Wash Out),PSMA^+ PIP cells [1]; [3],87.21%
same,Total Cellular Uptake,PSMA^+ PIP cells [1]; [3],3.78%
same,Cells Left Over,PSMA^+ PIP cells [1]; [4],0.06%
same,Cytoplasmic,PSMA^+ PIP cells [1]; [4],1.47%
same,Cytoskeletal Protein,PSMA^+ PIP cells [1]; [4],0.03%
same,Membrane,PSMA^+ PIP cells [1]; [4],3.23%
same,Micrococcal Nuclease,PSMA^+ PIP cells [1]; [4],0.09%
same,Nuclear Soluble,PSMA^+ PIP cells [1]; [4],0.11%
same,Supernatant (Wash Out),PSMA^+ PIP cells [1]; [4],86.85%
same,Total Cellular Uptake,PSMA^+ PIP cells [1]; [4],4.99%
same,Cells Left Over,PSMA^+ PIP cells [1]; [5],0.07%
same,Cytoplasmic,PSMA^+ PIP cells [1]; [5],3.09%
same,Cytoskeletal Protein,PSMA^+ PIP cells [1]; [5],0.15%
same,Membrane,PSMA^+ PIP cells [1]; [5],9.00%
same,Micrococcal Nuclease,PSMA^+ PIP cells [1]; [5],0.14%
same,Nuclear Soluble,PSMA^+ PIP cells [1]; [5],1.01%
same,Supernatant (Wash Out),PSMA^+ PIP cells [1]; [5],82.42%
same,Total Cellular Uptake,PSMA^+ PIP cells [1]; [5],13.44%
same,Cells Left Over,PSMA^+ PIP cells [1]; no blocking agent,0.45%
same,Cytoplasmic,PSMA^+ PIP cells [1]; no blocking agent,2.50%
same,Cytoskeletal Protein,PSMA^+ PIP cells [1]; no blocking agent,0.28%
same,Membrane,PSMA^+ PIP cells [1]; no blocking agent,20.70%
same,Micrococcal Nuclease,PSMA^+ PIP cells [1]; no blocking agent,0.59%
same,Nuclear Soluble,PSMA^+ PIP cells [1]; no blocking agent,2.17%
same,Supernatant (Wash Out),PSMA^+ PIP cells [1]; no blocking agent,73.31%
same,Total Cellular Uptake,PSMA^+ PIP cells [1]; no blocking agent,26.69%
same,Total cell-associated activity (percentage of input dose),PSMA^+ PIP cells [2]; 15 min,18.7±1.0%
same,Total cell-associated activity (percentage of input dose),PSMA^+ PIP cells [2]; 30 min,30.0±0.9%
same,Total cell-associated activity (percentage of input dose),PSMA^+ PIP cells [2]; 60 min,31.8±1.0%
same,Total cell-associated activity (percentage of input dose),PSMA^+ PIP cells [2]; 120 min,37.9±0.6%
same,Uptake blocked by 2-PMPA,PSMA^+ PIP cells [2]; presence of 200 μM 2-PMPA,> 80%
C[C@]1(c2nc3c(C(N)=O)cccc3[nH]2)CCCN1 [veliparib],dissociation rate constant (kd),PARP-1,0.00408 s⁻¹

# Reference: patent publication US20240307561A1, “RA[…] INHIBITOR CONJUGATES FOR CANCER TREATMENT” (DUKE UNIVERSITY, priority 2021, published 2024)
